“Also recorded” adds a separate entry of the source. Where a SMILES comes first, the peptide text is derived from it. [ ]: non-standard residue; d: D form. The star is where a group is joined. Leu(ol) = CC(C)C[C@H](N)CO; Cbz = O=C(OCc1ccccc1)*; Boc = CC(C)(C)OC(=O)*; OBn = c1ccc(CO*)cc1; OtBu = CC(C)(C)O*; CH2Cl = ClC*
Tests used:
[1] = biological target: T1, 20S proteasome β5 chymotrypsin-like activity (Suc-LLVY-AMC) (Homo sapiens, UniProt P20618+P28074); assay: Protease assay, chymotrypsin-like activity of isolated 20S proteasomes (LLVY substrate); format: biochemical; details: isolated 20S proteasome; LLVY-MCA 50 μM; 15 min pre-incubation; read-out: IC50 β5 Chymotrypsin-like (Y)
T1 construct: Proteasomes were isolated from red blood cells; from tissue; host or cells: red blood cells
Method: (§1) Proteasomes were isolated from red blood cells. Cells were lysed with DTT (1 mM), and the stroma-free supernatant was loaded on DEAE-sepharose (Toyopearls). Proteasome was eluted with an NaCl-gradient in TEAD (20 mM TrisCl pH 7.4, 1 mM EDTA, 1 mM azide, 1 mM DTT) of 100 to 300 mM NaCl. Proteasome was concentrated using ammonium sulfate-precipitation (between 40 and 70% saturation) and was separated in a 10-40% sucrose-gradient through centrifugation at 40.000 rpm for 16 hours (SW40; L7, Beckman & Coulter). Finally, the proteasomes were purified on a MonoQ-column and eluted with an NaCl-gradient at about 280 mM NaCl. The fractions containing purified proteasome were dialysed against 50 mM NaCl in TEAD and stored on ice. The purity was determined using SDS-PAGE.
(§2) Suc-LLVY-AMC, Z-VGR-AMC and LLE-AMC (BACHEM, Calbiochem) was used, in order to determine the chymotrypsin-like, trypsin-like or caspase-like (post-acidic)-activities of the proteasome. Substrate was incubated with proteasome at 37° C. in assay-buffer (20 mM Tris/Cl, pH 7.2, 1 mM EDTA, 1 mM DTT) for one hour. 100 ng proteasome was pre-incubated with 0.01-10 μM of the inhibitor for […]. The reaction was started by the addition of substrate (50 μM). The AMC as released was detected using fluorescence emission at 460 nm (excitation at 390 nm) using a TECAN-fluorimeter. The activity was calculated in fluorescence-units. The inhibition is depicted by IC50-values.
The chymotrypsin-like (Suc-LLVY-AMC), the trypsin-like (Bz-VGR-AMC), and the caspase-like (Z-LLE-AMC)-activities of 20S proteasomes were determined following incubation for one hour at 37° C.
(§3) The IC50-values form the inhibition of the proteasome were calculated at increasing concentrations of the inhibitor. The samples were pre-incubated for 15 min in ice. The assay was started through the addition of 50 μM of one of the following fluorogenic peptide substrates:
(§4) The release of MCA was determined at 460 nm emission (excitation 390 nm). The IC50-values as calculated for MG132 served as controls.

[2] = biological target: T2, 20S proteasome β1 caspase-like activity (LLE-MCA) (Homo sapiens, UniProt P28072+Q99436); assay: Protease assay, caspase-like activity of isolated 20S proteasomes; format: biochemical; details: isolated 20S proteasome; LLE-MCA 50 μM; 15 min pre-incubation; read-out: IC50 β1 Caspase-like (E)
T2 construct: Proteasomes were isolated from red blood cells; from tissue; host or cells: red blood cells
Method: as §1, §2
(§5) The effects thereof were compared with the one of the commonly used proteasomal inhibitor 3 (MG132). The chymotrypsin-like (Suc-LLVY-AMC), the trypsin-like (Bz-VGR-AMC), and the caspase-like (Z-LLE-AMC)-activities of 20S proteasomes were determined following incubation for one hour at 37° C.
as §3, §4

20S proteasome = system: T3, 20S proteasome; assay: Inhibition of the different proteasomal activities, summary statements; format: biochemical; details: isolated proteasomes, specific substrates
T3 construct: Proteasomes were isolated from red blood cells; from tissue; host or cells: red blood cells
Method: The specific inhibition of a single catalytic site is of specific interest for the development of drugs. Thus, the inhibition of the different proteasomal activities of the proteasome was analysed (see also example 6). The different cleavage-preferences of the proteasome were determined by the specific substrate for the hydrophobic (chymotrypsin-like), the trypsine-like and the caspase-like activities of isolated proteasomes.
as §2, §5

[3] = biological target: T4, proteasomal activity in HeLa-cells (Homo sapiens, UniProt P20618+P28074); assay: Intracellular inhibition of proteasomes in cultivated HeLa-cells; format: cell-based; details: for membrane-permeation / stability during the incubation periods: cultivated cells; for reduction of the specific proteasomal activity in cells: 1 μM
T4 construct: endogenous in cells; host or cells: HeLa
Method: (§6) A, HeLa-cells were cultivated were 24 hours in the presence of the inhibitor. The protein concentration was determined in accordance with the cellular lysis according to Bradford in order to normalise the proteasomal activities to the different amounts of cells. Subsequently Complete (Roche) was added to all lysates, and the proteasomal activity was determined through the hydrolysis of Suc-LLVY-AMC. B, HeLa-cells was incubated with 1 μM of compound 15 for 2, 4, 6 and 24 hours. Cells were lysed, and proteins were separated through SDS-PAGE on a 10% gel, blotted to a PVDF-membrane. The accumulation of the poly-ubiquitinylated proteins was detected in a Western blot by an anti-ubiquitine-antibody (DAKO). C, HeLa-Cells were treated with increasing concentrations of the inhibitor 15, 25, 26, 27, and 28 for 24 hours (lane 1: without inhibitor; lane 2: 10 nM; lane 3: 100 nM and lane 4: 1 μM of the given inhibitor). Cells were lysed, proteins were separated on 15% gels, and the accumulation of the poly-ubiquitinylated proteins was controlled through Western blot.
HeLa-Cells were cultivated in RPMI, supplemented with 10% FCS and penicillin/streptomycin, at 5% CO2. Inhibitors were administered from 100×-stock solutions (in DMSO) at the final concentrations as indicated, and incubated with the cells for at least 20 hours.
Cultivated cells (HeLa) were harvested lysed and with 0.1% NP40 in TEAD in the presence of the commercially available protease-inhibitor-mixture Complete (Roche). The proteasomal activity was measured in 10 μl of the lysate using Suc-LLVY-AMC as a substrate. The protein content was quantified by means of Bradford (Protein assay; BioRad).
An application on cell cultures or animals requires that the concentrations of the inhibitors are chose as low as required. The specific proteasomal activity was reduced to a value of below 50% in cells that were treated with 1 μM of the compounds 15, 22, 25, 26, or 28, respectively (FIG. 6A).

[4] = system: poly-ubiquitinylated proteins in HeLa-cells; assay: Accumulation of poly-ubiquitinylated proteins, Western blot; format: cell-based; details: 1 μM for compound 15
Method: as §6
A specific inhibition of the proteasome lead to an accumulation of poly-ubiquitinylated proteins. Indeed, the amount of poly-ubiquitinylated proteins increased during the incubation with the inhibitors. First effects were observed after 2 hours, for compound 15 (FIG. 6B) as well as for compounds 20, 22, 25 and 28 (data not shown).
50 μg of whole-cell-lysate were separated by SDS-PAGE, and blottet onto a PVDF-membrane (Millipore). The blots were blocked by means of a 5% milk-suspension. The poly-ubiquitinylated proteins were detected by anti-ubiquitin-antibody (DAKO), and anti-rabbit, POD-labelled, as a secondary antibody (DIANOVA), and visualized through ECL.

[5] = biological target: T5, 20S proteasome β2 trypsin-like activity (VGR-MCA) (Homo sapiens, UniProt P49720+Q99436); assay: Protease assay, trypsin-like activity of isolated 20S proteasomes; format: biochemical; details: isolated 20S proteasome; VGR-MCA 50 μM; 15 min pre-incubation; read-out: IC50 β2 Trypsin-like (R)
T5 construct: Proteasomes were isolated from red blood cells; from tissue; host or cells: red blood cells
Method: as §1, §2, §5, §3, §4

[6] = Hydrolytic stability of dichlorovinylethers; format: physicochemical; details: for stability at pH 11: converted into α-chloroacetates
Description: The non-selective dichlorovinylester 1 (see FIG. 1), which readily reacts with all possible nucleophiles, such as, for example, cysteine, serine and finally also threonine, served as a further lead-structure for the syntheses of compounds according to the invention. In addition, the aim was pursued to reduce the inherent over-activation of this compound. The “removal” of the acyl group of 1 could reduce the non-specific hydrolysis through ubiquitary nucleophiles, and results in quite stable dichlorovinylethers (28). […] This dual reactivity which is provided in a cascade-like reaction, corresponds to the specific requirements for an N-terminal threonine-protease-inhibitor.

HeLa-cells = assay: Viability of HeLa-cells, crystal violet-staining; format: cell-based; details: 10 μM, 20 hours
Method: A, The viability of HeLa-Cells that were incubated with the compounds 7-28 and MG132 (1 μM), was determined using crystal-violet-staining after 20 h.
B, The viability of HeLa-Cells is dependent from the concentration of the inhibitor. HeLa-cells were cultivated for 20 hours in the presence of increasing concentrations (10 to 10000 nM) of the compounds (7, 13, 15, 18, 20-22, 24-28) and MG 132. The survival of the cells was determined using crystal-violet-staining.
The viability of Hela-Cells in the presence of different compounds was tested in […]. The viability of HeLa-cells was tested through crystal violet-staining following the incubation with the inhibitors. The cells were washed once with PBS, fixed with 1% glutardialdehyde for 30 min, and washed again. Finally, the fixed cells were stained with 0.1% crystal violet in PBS for 30 min, and subsequently carefully washed with water, in order to remove unbound dye. The residual dye was eluted with 0.1% Triton X-100 in PBS, and determined at 550 nm.

[7] = biological target: T6, 20S proteasome β5 chymotrypsin-like activity (GLL-MCA) (Homo sapiens, UniProt P20618+P28074); assay: Protease assay, chymotrypsin-like activity of isolated 20S proteasomes (GLL substrate); format: biochemical; details: isolated 20S proteasome; GLL-MCA 50 μM; 15 min pre-incubation; read-out: IC50 β5 Chym.-like (L)
T6 construct: Proteasomes were isolated from red blood cells; from tissue; host or cells: red blood cells
Method: as §1, §2, §3, §4

Compound	IC50 [1] [µM]	IC50 [2] [µM]	which proteasomal activities are inhibited (site selectivity) (20S proteasome)	other results
CC(C)C[C@@H](CO)NC(=O)[C@H](CC(=O)OCc1ccccc1)NC(=O)[C@H](CC(C)C)NC(=O)OC(C)(C)C [Compound 12] (Boc-Leu-Asp(OBn)-[Leu(ol)])	> 10			
CC(C)C[C@H](NC(=O)OCc1ccccc1)C(=O)N[C@@H](CC(C)C)C(=O)N[C@@H](CC(C)C)C(O)C(=O)Nc1ccccc1 (some centres unmarked) [Compound 25]	0.981	4.04	inhibited the chymotryptic and the caspase-like sites	membrane-permeation [3]: membrane-permeation; stability during the incubation periods [3]: sufficient stability; first effects on accumulation of poly-ubiquitinylated proteins observed after [4]: 2 h
CC(=O)N[C@@H](CC(C)C)C(=O)N[C@@H](CC(=O)OCc1ccccc1)C(=O)N[C@H](CO)CC(C)C [Compound 10] (Ac-Leu-Asp(OBn)-[Leu(ol)])	> 10			
CC(C)C[C@@H](C=O)NC(=O)[C@H](CC(=O)O)NC(=O)[C@H](CC(C)C)NC(=O)OCc1ccccc1 [Compound 16] (Cbz-Leu-Asp-Leu-aldehyde)	7.26	> 10	exclusive reduction of the chymotryptic activity	IC50 [5]: > 10 µM
CC(C)C[C@@H](CO)NC(=O)[C@H](CC(=O)OCc1ccccc1)NC(=O)[C@H](CC(C)C)NC(=O)OCc1ccccc1 [Compound 11] (Cbz-Leu-Asp(OBn)-[Leu(ol)])	> 10			
CC(C)C[C@@H](CO)NC(=O)[C@H](CC(=O)OC(C)(C)C)NC(=O)[C@H](CC(C)C)NC(=O)OCc1ccccc1 [Compound 8] (Cbz-Leu-Asp(OtBu)-[Leu(ol)])	> 10	> 10	exclusive inhibition of the trypsin-like activity; also recorded: specifically reduced the trypsine-like activity	IC50 [5]: 5.48 µM
CC(C)C[C@@H](C=O)NC(=O)[C@H](CC(=O)OCc1ccccc1)NC(=O)[C@H](CC(C)C)NC(=O)OCc1ccccc1 [Compound 18] (Cbz-Leu-Asp(OBn)-Leu-aldehyde)	1.73	3.12	inhibited the chymotryptic and the caspase-like sites	reduction of the specific proteasomal activity in cells ([3]; HeLa cells): very weak inhibition
CC(C)C[C@H](NC(=O)OCc1ccccc1)C(=O)N[C@@H](CC(C)C)C(=O)N[C@H](COC(Cl)=CCl)c1ccccc1 [Compound 19]				stability in acidic environment [6]: tolerate an acidic environment; stability at pH 11 [6]: hydrolysed readily
CC(C)CC(NC(=O)C(CC(C)C)NC(=O)C(CC(C)C)NC(=O)OCc1ccccc1)C(=O)CCl (stereo not drawn) [Compound 22] (Cbz-Leu-Leu-Leu-CH2Cl; configuration not given here)	2.2		exclusive reduction of the chymotryptic activity	reduction of the proteolytic activity in cells at 10 nM ([3]; HeLa cells, 10 nM): reduction of the proteolytic activity; membrane-permeation [3]: membrane-permeation; stability during the incubation periods [3]: sufficient stability; first effects on accumulation of poly-ubiquitinylated proteins observed after [4]: 2 h
CC(C)C[C@H](NC(=O)OCc1ccccc1)C(=O)N[C@@H](CC(C)C)C(=O)N[C@@H](CC(C)C)C(=O)C(=O)NCc1cccnc1 [Compound 27]		7.97	inhibited the chymotryptic and the caspase-like sites	reduction of the specific proteasomal activity in cells ([3]; HeLa cells): markedly reduction; rate of survival of HeLa-cells (HeLa-cells): markedly reduced
CC(C)C[C@@H](COC(Cl)=CCl)NC(=O)[C@H](CC(C)C)NC(=O)[C@H](CC(C)C)NC(=O)OCc1ccccc1 [Compound 20]	> 10	> 10		IC50 [5]: > 10 µM; first effects on accumulation of poly-ubiquitinylated proteins observed after [4]: 2 h; stability in acidic environment [6]: tolerate an acidic environment; stability at pH 11 [6]: hydrolysed readily
CC(C)C[C@H](NC(=O)OCc1ccccc1)C(=O)N[C@@H](CC(C)C)C(=O)N[C@@H](CC(C)C)C(O)C#Cc1ccccc1 (some centres unmarked) [Compound 21]	1.3		exclusive reduction of the chymotryptic activity	IC50 [7]: > 10 µM; reduction of the specific proteasomal activity in cells ([3]; HeLa cells): very weak inhibition
CC(=O)N[C@@H](CC(C)C)C(=O)N[C@@H](CC(=O)OC(C)(C)C)C(=O)N[C@H](CO)CC(C)C [Compound 9] (Ac-Leu-Asp(OtBu)-[Leu(ol)])	> 10			

Reference: patent publication US8835392B2, “Mimetic peptides and the use thereof in the form of 20S, 26S and immunoproteasome inhibitors” (Technische Universität, priority 2005, dated 2014)
